Columns and labels:
Format in all cases: functional
SF-539 = assay: Growth inhibition of human SF539 cells assessed as cell growth at 3X10'-5 M after 48 hrs by sulforhodamine B assay; details: SF-539, 48 h, read-out: Activity
M14 = assay: Growth inhibition of human M14 cells assessed as cell growth at 3X10'-8 M after 48 hrs by sulforhodamine B assay; details: M14, 48 h, read-out: Activity
OVCAR-4 = assay: Growth inhibition of human OVCAR4 cells assessed as cell growth at 3X10'-5 M after 48 hrs by sulforhodamine B assay; details: OVCAR-4, 48 h, read-out: Activity
ACHN [1] = assay: Growth inhibition of human ACHN cells assessed as cell growth at 3X10'-7 M after 48 hrs by sulforhodamine B assay; details: read-out: Activity
KM12 = assay: Growth inhibition of human KM12 cells assessed as cell growth at 3X10'-8 M after 48 hrs by sulforhodamine B assay; details: KM12, 48 h, read-out: Activity
HT-29 = assay: Growth inhibition of human HT-29 cells assessed as cell growth at 3X10'-5 M after 48 hrs by sulforhodamine B assay; details: HT-29, 48 h, read-out: Activity
CAKI-1 = assay: Growth inhibition of human CAKI-1 cells assessed as cell growth at 3X10'-5 M after 48 hrs by sulforhodamine B assay; details: CAKI-1, 48 h, read-out: Activity
T47D [2] = assay: Growth inhibition of human T47D cells assessed as cell growth at 3X10'-8 M after 48 hrs by sulforhodamine B assay; details: read-out: Activity
HOP-62 [3] = assay: Growth inhibition of human HOP62 cells assessed as cell growth at 3X10'-7 M after 48 hrs by sulforhodamine B assay; details: HOP-62, 48 h, read-out: Activity
OVCAR-3 = assay: Growth inhibition of human OVCAR3 cells assessed as cell growth at 3X10'-5 M after 48 hrs by sulforhodamine B assay; details: OVCAR-3, 48 h, read-out: Activity
SF-295 [4] = assay: Growth inhibition of human SF295 cells assessed as cell growth at 3X10'-9 M after 48 hrs by sulforhodamine B assay; details: SF-295, 48 h, read-out: Activity
BT-549 = assay: Growth inhibition of human BT549 cells assessed as cell growth at 3X10'-5 M after 48 hrs by sulforhodamine B assay; details: BT-549, 48 h, read-out: Activity
SF-295 [5] = assay: Growth inhibition of human SF295 cells assessed as cell growth at 3X10'-7 M after 48 hrs by sulforhodamine B assay; details: SF-295, 48 h, read-out: Activity
U-251 = assay: Growth inhibition of human U251 cells assessed as cell growth at 3X10'-6 M after 48 hrs by sulforhodamine B assay; details: U-251, 48 h, read-out: Activity
DU-145 = assay: Growth inhibition of human DU145 cells assessed as cell growth at 3X10'-7 M after 48 hrs by sulforhodamine B assay; details: DU-145, 48 h, read-out: Activity
OVCAR-5 = assay: Growth inhibition of human OVCAR5 cells assessed as cell growth at 3X10'-5 M after 48 hrs by sulforhodamine B assay; details: OVCAR-5, 48 h, read-out: Activity
MOLT-4 = assay: Growth inhibition of human MOLT4 cells assessed as cell growth at 3X10'-9 M after 48 hrs by sulforhodamine B assay; details: MOLT-4, 48 h, read-out: Activity
NCI-H460 [6] = assay: Growth inhibition of human NCI-H460 cells assessed as cell growth at 3X10'-7 M after 48 hrs by sulforhodamine B assay; details: NCI-H460, 48 h, read-out: Activity
UACC-257 = assay: Growth inhibition of human UACC257 cells assessed as cell growth at 3X10'-5 M after 48 hrs by sulforhodamine B assay; details: UACC-257, 48 h, read-out: Activity
IGROV-1 [7] = assay: Growth inhibition of human IGROV1 cells assessed as cell growth at 3X10'-9 M after 48 hrs by sulforhodamine B assay; details: IGROV-1, 48 h, read-out: Activity
CCRF-CEM = assay: Growth inhibition of human CCRF-CEM cells assessed as cell growth at 3X10'-8 M after 48 hrs by sulforhodamine B assay; details: read-out: Activity
RPMI-8226 = assay: Growth inhibition of human RPMI8226 cells assessed as cell growth at 3X10'-9 M after 48 hrs by sulforhodamine B assay; details: RPMI-8226, 48 h, read-out: Activity
[8] = Growth inhibition of human NCI-ADR-RES cells assessed as cell growth at 3X10'-5 M after 48 hrs by sulforhodamine B assay; details: read-out: Activity
SR = assay: Growth inhibition of human SR cells assessed as cell growth at 3X10'-6 M after 48 hrs by sulforhodamine B assay; details: read-out: Activity
NCI-H522 = assay: Growth inhibition of human NCI-H522 cells assessed as cell growth at 3X10'-7 M after 48 hrs by sulforhodamine B assay; details: NCI-H522, 48 h, read-out: Activity
NCI-H322M = assay: Growth inhibition of human NCI-H322M cells assessed as cell growth at 3X10'-8 M after 48 hrs by sulforhodamine B assay; details: read-out: Activity
ACHN [9] = assay: Growth inhibition of human ACHN cells assessed as cell growth at 3X10'-5 M after 48 hrs by sulforhodamine B assay; details: read-out: Activity
MCF7 = assay: Growth inhibition of human MCF7 cells assessed as cell growth at 3X10'-9 M after 48 hrs by sulforhodamine B assay; details: MCF7, 48 h, read-out: Activity
NCI-H460 [10] = assay: Growth inhibition of human NCI-H460 cells assessed as cell growth at 3X10'-6 M after 48 hrs by sulforhodamine B assay; details: NCI-H460, 48 h, read-out: Activity
A549 = assay: Growth inhibition of human A549/ATCC cells assessed as cell growth at 3X10'-9 M after 48 hrs by sulforhodamine B assay; details: A549, 48 h, read-out: Activity
HOP-62 [11] = assay: Growth inhibition of human HOP62 cells assessed as cell growth at 3X10'-5 M after 48 hrs by sulforhodamine B assay; details: HOP-62, 48 h, read-out: Activity
T47D [12] = assay: Growth inhibition of human T47D cells assessed as cell growth at 3X10'-5 M after 48 hrs by sulforhodamine B assay; details: read-out: Activity
SNB-19 = assay: Growth inhibition of human SNB19 cells assessed as cell growth at 3X10'-8 M after 48 hrs by sulforhodamine B assay; details: SNB-19, 48 h, read-out: Activity
IGROV-1 [13] = assay: Growth inhibition of human IGROV1 cells assessed as cell growth at 3X10'-6 M after 48 hrs by sulforhodamine B assay; details: IGROV-1, 48 h, read-out: Activity
LOX IMVI = assay: Growth inhibition of human LOXIMVI cells assessed as cell growth at 3X10'-5 M after 48 hrs by sulforhodamine B assay; details: read-out: Activity
NCI-H226 = assay: Growth inhibition of human NCI-H226 cells assessed as cell growth at 3X10'-8 M after 48 hrs by sulforhodamine B assay; details: NCI-H226, 48 h, read-out: Activity
Malme-3M = assay: Growth inhibition of human MALME-3M cells assessed as cell growth at 3X10'-5 M after 48 hrs by sulforhodamine B assay; details: read-out: Activity

Row | Compound | growth at 30 µM (SF-539) [%] | growth at 0.03 µM (M14) [%] | growth at 30 µM (OVCAR-4) [%] | growth at 0.3 µM (ACHN [1]) [%] | growth at 0.03 µM (KM12) [%] | growth at 30 µM (HT-29) [%] | growth at 30 µM (CAKI-1) [%] | growth at 0.03 µM (T47D [2]) [%] | growth at 0.3 µM (HOP-62 [3]) [%] | growth at 30 µM (OVCAR-3) [%] | growth at 0.003 µM (SF-295 [4]) [%] | growth at 30 µM (BT-549) [%] | growth at 0.3 µM (SF-295 [5]) [%] | growth at 3 µM (U-251) [%] | growth at 0.3 µM (DU-145) [%] | growth at 30 µM (OVCAR-5) [%] | growth at 0.003 µM (MOLT-4) [%] | growth at 0.3 µM (NCI-H460 [6]) [%] | growth at 30 µM (UACC-257) [%] | growth at 0.003 µM (IGROV-1 [7]) [%] | also measured
1 | O=C(Nc1cccc(-n2cc(-c3ccncc3)c(-c3ccc(Cl)c(O)c3)n2)c1)Nc1ccc(Cl)c(C(F)(F)F)c1 | -37 | 101 | 9 | 84 | 103 | -63 | -25 | 103 | 104 | -16 | 92 | -19 | 90 | -61 | 97 | -14 | 110 | 94 | -90 | 98 | growth at 0.03 µM (CCRF-CEM): 97%; growth at 0.003 µM (RPMI-8226): 96%; growth at 30 µM [8]: -1%; growth at 3 µM (SR): -10%; growth at 0.3 µM (NCI-H522): 82%; growth at 0.03 µM (NCI-H322M): 105%; growth at 30 µM (ACHN [9]): 2%; growth at 0.003 µM (MCF7): 93%; growth at 3 µM (NCI-H460 [10]): 4%; growth at 0.003 µM (A549): 98%; growth at 30 µM (HOP-62 [11]): -17%; growth at 30 µM (T47D [12]): 10%; growth at 0.03 µM (SNB-19): 94%; growth at 3 µM (IGROV-1 [13]): -17%; growth at 30 µM (LOX IMVI): -91%; growth at 0.03 µM (NCI-H226): 86%; growth at 30 µM (Malme-3M): -70%
2 | O=C(Nc1cccc(-n2cc(-c3ccncc3)c(-c3ccc(Cl)c(O)c3)n2)c1)Nc1cccc(C(F)(F)F)c1 | -43 | 98 | 16 | 94 | 95 | 1 | 2 | 95 | 105 | -25 | 94 | -18 | 88 | 29 | 97 | 22 | 97 | 94 | -18 | 98 | growth at 0.03 µM (CCRF-CEM): 96%; growth at 0.003 µM (RPMI-8226): 99%; growth at 30 µM [8]: 7%; growth at 3 µM (SR): 33%; growth at 0.3 µM (NCI-H522): 98%; growth at 0.03 µM (NCI-H322M): 95%; growth at 30 µM (ACHN [9]): 7%; growth at 0.003 µM (MCF7): 91%; growth at 3 µM (NCI-H460 [10]): 16%; growth at 0.003 µM (A549): 97%; growth at 30 µM (HOP-62 [11]): 9%; growth at 30 µM (T47D [12]): 7%; growth at 0.03 µM (SNB-19): 98%; growth at 3 µM (IGROV-1 [13]): 29%; growth at 30 µM (LOX IMVI): -50%; growth at 0.03 µM (NCI-H226): 100%; growth at 30 µM (Malme-3M): -10%
